# Reference: patent US11964935B2, “Gingerol derivative having inhibitory activity against biofilm formation and pharmaceutical composition comprising same as effective ingredient for preventing or treating biofilm-caused infection symptom” (Korea University Research and Business Foundation, Sejong …, priority 2017, dated 2024)
# “Also recorded” adds a separate entry of the source.
# Columns and labels:
# P. aeruginosa = settings: cited from earlier work
# P. aeruginosa PA14 [1] = experiment: Static biofilm formation assay; format: cell-based, Pseudomonas aeruginosa
# Method: Overnight culture of P. aeruginosa PA14 (OD595=1.0) was diluted (1:20) with the AB medium (300 mM NaCl, 50 mM MgSO4, 0.2% vitamin-free casamino acids, 10 mM potassium phosphate, 1 mM L-arginine, and 1% glucose, pH 7.5) (1:20) containing with either positive controls or synthesized compounds (0-100 μM). The dilutions were aliquoted into borosilicate bottles, and the bottles were incubated at 37° C. for 24 h without agitation. After that, OD595 of the cell suspension was measured on the VICTOR ×5 multimode plate reader. The biofilm cells attached to the bottle were washed two times with phosphate buffered saline (PBS; 137 mM NaCl, 2.7 mM KCl, 10 mM Na2HPO4, and 2 mM KH2PO4, pH 7.2) and stained with 0.1% crystal violet for […] Next, the stained biofilm cells were eluted with 100% ethyl alcohol, and OD540 was measured on the VICTOR ×5 multimode plate reader. The biofilm formation was quantified by dividing OD540 with OD595.
# P. aeruginosa PA14 [2] = experiment: Growth inhibition assay; format: cell-based, Pseudomonas aeruginosa; settings: 100 μM, 24 h
# Method: A 5% dilution of overnight culture of P. aeruginosa PA14 (OD595=1.0) containing either a positive control or the synthesized compound (0-100 μM) was inoculated into wells of a 96-well polystyrene microtiter plate (Sigma-Aldrich). The plate was incubated at 37° C. for 24 h. OD595 of the suspension culture was measured on the VICTOR ×5 multimode plate reader.
# LasR [3] = target: T1, LasR (Pseudomonas aeruginosa, UniProt P25084); experiment: LasR reporter gene assay (E. coli reporter strain, luminescence, competition with OdDHL); format: cell-based; settings: compound 1 μM or 10 μM in the presence of 1 μM OdDHL (compound 1a)
# T1 construct: expressed in transfected cells; host or cells: E. coli DH5α (printed DHSα) co-transformed with pJN105L and pSC11
# Method: This assay was conducted by modifying a previously reported method. E. coli DHSα co-transformed with two plasmids, pJN105L (LasR expression plasmid) and pSC11 (lasI::lacZ fusion plasmid), was used as a bioassay reporter strain. Overnight culture of the reporter strain with 10 μg/mL gentamicin and 50 μg/mL ampicillin was diluted in the Luria-Bertani (LB) medium (1:100). Then, the reporter strain (optical density at 595 nm [OD595] was 0.3) mixed with either a positive control or the synthesized compound was incubated with OdDHL (Sigma-Aldrich, St. Louis, MO., USA) and 0.4% arabinose (Sigma-Aldrich). After incubation at 37° C. for 1.5 h, OD595 was measured on a VICTOR ×5 multimode plate reader (PerkinElmer, Waltham, Mass., USA). The β-galactosidase activity was determined using a Tropix plus kit (Applied Biosystems, USA), and luminescence was measured on the VICTOR ×5 multimode plate reader. RLU ratio was quantified by dividing luminescence with OD595.
# LasR-binding affinity of the synthesized gingerols (compounds 4-10) with various alkyl chain lengths was determined by measuring luminescence of an E. coli reporter strain. The reporter strain carried two plasmids, pJN105L (LasR expression plasmid) (Lee, J. H.; Lequette, Y.; Greenberg, E. P. Activity of purified QscR, a Pseudomonas aeruginosa orphan quorum-sensing transcription factor. Mol. Microbiol. 2006, 59, 602609.) and pSC11 (las1::lacZ fusion plasmid) (Chugani, S. A.; Whiteley, M.; Lee, K. M.; D'Argenio, D.; Manoil, C.; Greenberg, E. P. QscR, a modulator of quorum-sensing signal synthesis and virulence in Pseudomonas aeruginosa. Proc. Natl. Acad. Sci. U.S.A. 2001, 98, 27522757.), which enabled assay of competitive binding of OdDHL with each gingerol derivative 4-10. Antagonistic activities of the synthesized compounds at 1 μM or 10 μM were determined by measuring luminescence in the presence of 1 μM OdDHL (compound 1a) and presented as relative luminescence unit (RLU) ratio. Three compounds (compounds 1b, 1c, and 1d) served as positive controls. […] Just as the LasR inhibition, inhibition of biofilm formation also strengthened as the carbon chain was extended at 10 μM ((B) of FIG. 3). However, inhibition of biofilm formation decreased with 9-gingerol (compound 9) and 10-gingerol (compound 10) at 100 μM ((C) of FIG. 3) because of increased bacterial growth inhibition. […] This effect may be due to the fact that compounds 9 and 10 act as a surfactant, which inhibits bacterial growth. Agonistic activities of compounds 4-10 in an E. coli reporter assay system in the absence of OdDHL were next examined.
# LasR [4] = target: T1, LasR; experiment: as above; format: cell-based; settings: compound 1 μM; compound 1a 0, 0.1, 1, 10 and 100 μM
# P. aeruginosa PA14 [5] = experiment: Dynamic biofilm formation assay (drip-flow reactor, CLSM); format: cell-based, Pseudomonas aeruginosa; settings: for Biofilm thickness / Biofilm volume: 10 μM compound, Comstat2; for Biofilm thickness / Biofilm volume / Biofilm formation in CLSM images, in words: 48 h drip-flow reactor; for Biofilm formation in CLSM images, in words: compared with DMSO or compound 1c
# Method: Glass slides were dipped into a Petri dish containing 2 mL of a P. aeruginosa PA14 suspension (OD595=1.0) and 18 mL of the AB medium, followed by incubation at 37° C. for 24 h to let the cells adhere to the slides. The slides were then inserted into a drip-flow reactor (DFR-110, BioSurface, Mont., USA). The AB medium with either a positive control or the synthesized compound (0-10 μM) was fed into the reactor continuously via a peristaltic pump (Masterflex C/L tubing pumps, Cole-Parmer, IL, USA) at 0.3 mL/min After operation of the reactor at 37° C. for 48 h, the cells on the slides were washed two times with PBS. The biofilm cells were stained with fluorescein isothiocyanate-labeled type IV ConA (Sigma-Aldrich) and SYPRO Ruby (Ruby, Invitrogen, Carlsbad, CA, USA) for 15 min, respectively. CLSM images were captured via a 20× objective lens (W N-Achroplan 20×/0.5 W [DIC] M27) with green fluorescence (ConA, excitation wavelength of 490 nm, emission wavelength of 525 nm) and red fluorescence (Ruby, excitation wavelength of 470 nm, emission wavelength of 618 nm) and were analyzed in the Zen 2011 software (Carl Zeiss, Jena, Germany). For quantification, biofilm volume (μm^3/μm^2) and average thickness (μm) were measured by means of Comstat2 in ImageJ.
# A dynamic biofilm formation assay of compounds 41 and 42 was performed in a drip-flow reactor. Compound 1c served as a positive control, and DMSO served as a negative control. After 48 h drip-flow reactor operation, the biofilm was stained with Ruby and concanavalin A (ConA). Ruby (red) is a reagent for staining protein, and ConA (green) is for carbohydrate of biofilm. As shown in (A) of FIG. 8, the biofilm in the presence of DMSO formed with typical mushroom-like morphology. […] Biofilm volume and thickness with compound 41 were the lowest among the three groups (Table 1).
# T1 sequence (P25084 whole entry): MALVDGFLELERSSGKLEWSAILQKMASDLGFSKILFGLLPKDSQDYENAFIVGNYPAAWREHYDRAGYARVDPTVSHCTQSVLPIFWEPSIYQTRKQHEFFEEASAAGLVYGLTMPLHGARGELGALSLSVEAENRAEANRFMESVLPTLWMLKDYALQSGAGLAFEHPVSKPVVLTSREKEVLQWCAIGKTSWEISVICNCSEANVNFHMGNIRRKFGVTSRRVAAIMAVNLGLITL
SMILES,"Inhibition of biofilm formation at 100 μM, in words (P. aeruginosa PA14 [1]; 24 h, static)",Bacterial growth inhibition (P. aeruginosa PA14 [2]),"LasR-antagonistic activity / LasR-binding affinity (RLU ratio), in words (LasR [3])",Biofilm thickness (P. aeruginosa PA14 [5]; CLSM),Biofilm volume (P. aeruginosa PA14 [5]; CLSM),"Biofilm formation in CLSM images, in words (P. aeruginosa PA14 [5]; 10 μM)",also measured
"CCCCC[C@H](O)CC(=O)CCc1ccc(O)c(OC)c1 [Compound 1b, (S)-6-gingerol]",,,,,,,Biofilm formation and production of virulence factors (previously demonstrated) (P. aeruginosa; competition with OdDHL for LasR): reduces biofilm formation and production of virulence factors
"O=C1C=C(Br)/C(=C/Br)O1 [Compound 1d, (Z)-4-bromo-5-(bromomethylene)furan-2(5H)-one]",,,,,,,Expression of virulence factors (prior report) (P. aeruginosa; interference with P. aeruginosa QS systems): inhibits the expression of virulence factors
"CCCCCCCCC(O)CC(=O)CCc1ccc(O)c(OC)c1 (stereo not drawn) [Compound 9, 5 -Hydroxy-1-(4-hydroxy-3-methoxyphenyl)tridecan-3-one]",decreased,inhibited bacterial growth significantly,,,,,
"CCCCCCCCCC(O)CC(=O)CCc1ccc(O)c(OC)c1 (stereo not drawn) [Compound 10, 5-Hydroxy-1-(4-hydroxy-3-methoxyphenyl)tetradecan-3-one]",decreased,inhibited bacterial growth significantly,,,,,
"CCCCCCC[C@@H](O)CC(=O)/C=C/c1ccc(O)c(OC)c1 [Compound 41, (R,E)-5-Hydroxy-1-(4-hydroxy-3-methoxyphenyl)dodec-1-en-3-one]",,bacterial growth inhibition was not observed,stronger LasR-binding affinity,10.3 ± 0.1 μm,7.4 ± 0.2 μm^3/μm^2,relatively thin and sparse; also recorded: inhibited biofilm formation more effectively than compound 1c did,"Inhibition of biofilm formation, in words (P. aeruginosa PA14 [1]; 10 μM, 24 h, static): greater inhibition of biofilm formation; Binding reversibility to LasR (LasR [4]): binds reversibly to LasR; Volume of carbohydrates in biofilm compared to the other groups (P. aeruginosa PA14 [5]; ConA staining, CLSM, 10 μM): 47-74%; Volume of proteins in biofilm compared to the other groups (P. aeruginosa PA14 [5]; Ruby staining, CLSM, 10 μM): 23-56%"
"CCCCCCC[C@@H](O)CC(=O)CCc1ccc(O)c(OC)c1 [Compound 42, (R)-5-Hydroxy-1-(4-hydroxy-3-methoxyphenyl)dodecan-3-one]",,bacterial growth inhibition was not observed,much stronger LasR-binding affinity than compound 1c,13.9 ± 0.1 μm,9.7 ± 1.1 μm^3/μm^2,relatively thin and sparse; also recorded: inhibited biofilm formation more effectively than compound 1c did,"Biofilm formation relative to compound 1c (P. aeruginosa PA14 [1]; static assay, 10 μM, effect of compound 1c set to 100%): 72%"
